Data reported in article PMC4447944 (The Journal of Biological Chemistry, 2015).

Experiments:
hALK = target: T1, hALK (Homo sapiens, UniProt Q9UM73); assay: KINOMEscan; format: binding
T1 construct: purchased DiscoverX

hALK(L1196M) = target: T2, hALK(L1196M) (Homo sapiens, UniProt Q9UM73, L1196M); assay: KINOMEscan; format: binding
T2 construct: purchased DiscoverX

hAMPK-alpha1 = target: T3, hAMPK-alpha1 (Homo sapiens, UniProt Q13131); assay: KINOMEscan; format: binding
T3 construct: purchased DiscoverX

hBIKE = target: T4, hBIKE (Homo sapiens, UniProt Q9NSY1); assay: KINOMEscan; format: binding
T4 construct: purchased DiscoverX

hBMPR1A = target: T5, hBMPR1A (Homo sapiens, UniProt P36894); assay: KINOMEscan; format: binding
T5 construct: purchased DiscoverX

hCAMK1 = target: T6, hCAMK1 (Homo sapiens, UniProt Q14012); assay: KINOMEscan; format: binding
T6 construct: purchased DiscoverX

hCSNK1G3 = target: T7, hCSNK1G3 (Homo sapiens, UniProt Q9Y6M4); assay: KINOMEscan; format: binding
T7 construct: purchased DiscoverX (KINOMEscan platform)

hCSNK2A1 = target: T8, hCSNK2A1 (Homo sapiens, UniProt P68400); assay: KINOMEscan; format: binding
T8 construct: purchased DiscoverX (KINOMEscan platform)

hEPHB2 = target: T9, hEPHB2 (Homo sapiens, UniProt P29323); assay: KINOMEscan; format: binding
T9 construct: purchased DiscoverX
T9 sequence (P29323 19-1055): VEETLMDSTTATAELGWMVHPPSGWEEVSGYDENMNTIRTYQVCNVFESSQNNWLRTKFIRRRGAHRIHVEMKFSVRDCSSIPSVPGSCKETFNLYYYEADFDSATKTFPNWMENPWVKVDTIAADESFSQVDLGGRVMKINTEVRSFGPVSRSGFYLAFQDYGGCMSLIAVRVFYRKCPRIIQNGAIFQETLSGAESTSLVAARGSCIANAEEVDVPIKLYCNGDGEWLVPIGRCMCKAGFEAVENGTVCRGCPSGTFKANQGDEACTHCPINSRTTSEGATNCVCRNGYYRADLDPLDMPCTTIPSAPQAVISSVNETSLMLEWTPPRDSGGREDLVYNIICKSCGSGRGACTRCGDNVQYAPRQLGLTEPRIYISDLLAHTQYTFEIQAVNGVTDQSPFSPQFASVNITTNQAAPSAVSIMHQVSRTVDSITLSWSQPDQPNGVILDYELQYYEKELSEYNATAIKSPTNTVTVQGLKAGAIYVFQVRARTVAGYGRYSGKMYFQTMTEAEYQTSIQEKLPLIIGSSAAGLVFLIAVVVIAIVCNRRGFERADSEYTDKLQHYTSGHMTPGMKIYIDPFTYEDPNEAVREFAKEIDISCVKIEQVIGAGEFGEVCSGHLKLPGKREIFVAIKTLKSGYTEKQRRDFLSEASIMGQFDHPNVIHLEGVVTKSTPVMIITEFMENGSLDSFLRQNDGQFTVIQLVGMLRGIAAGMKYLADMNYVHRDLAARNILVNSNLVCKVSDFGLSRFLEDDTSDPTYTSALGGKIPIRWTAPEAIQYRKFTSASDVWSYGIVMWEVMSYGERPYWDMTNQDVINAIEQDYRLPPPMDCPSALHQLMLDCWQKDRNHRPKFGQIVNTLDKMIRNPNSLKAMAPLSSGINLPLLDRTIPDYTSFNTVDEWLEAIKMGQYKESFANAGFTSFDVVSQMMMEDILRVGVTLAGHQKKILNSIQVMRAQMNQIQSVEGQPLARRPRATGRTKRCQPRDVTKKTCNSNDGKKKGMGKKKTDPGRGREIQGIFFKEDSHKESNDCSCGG

hEPHB3 = target: T10, hEPHB3 (Homo sapiens, UniProt P54753); assay: KINOMEscan; format: binding
T10 construct: purchased DiscoverX

hERBB4 = target: T11, hERBB4 (Homo sapiens, UniProt Q15303); assay: KINOMEscan; format: binding
T11 construct: purchased DiscoverX
T11 sequence (Q15303 26-1308): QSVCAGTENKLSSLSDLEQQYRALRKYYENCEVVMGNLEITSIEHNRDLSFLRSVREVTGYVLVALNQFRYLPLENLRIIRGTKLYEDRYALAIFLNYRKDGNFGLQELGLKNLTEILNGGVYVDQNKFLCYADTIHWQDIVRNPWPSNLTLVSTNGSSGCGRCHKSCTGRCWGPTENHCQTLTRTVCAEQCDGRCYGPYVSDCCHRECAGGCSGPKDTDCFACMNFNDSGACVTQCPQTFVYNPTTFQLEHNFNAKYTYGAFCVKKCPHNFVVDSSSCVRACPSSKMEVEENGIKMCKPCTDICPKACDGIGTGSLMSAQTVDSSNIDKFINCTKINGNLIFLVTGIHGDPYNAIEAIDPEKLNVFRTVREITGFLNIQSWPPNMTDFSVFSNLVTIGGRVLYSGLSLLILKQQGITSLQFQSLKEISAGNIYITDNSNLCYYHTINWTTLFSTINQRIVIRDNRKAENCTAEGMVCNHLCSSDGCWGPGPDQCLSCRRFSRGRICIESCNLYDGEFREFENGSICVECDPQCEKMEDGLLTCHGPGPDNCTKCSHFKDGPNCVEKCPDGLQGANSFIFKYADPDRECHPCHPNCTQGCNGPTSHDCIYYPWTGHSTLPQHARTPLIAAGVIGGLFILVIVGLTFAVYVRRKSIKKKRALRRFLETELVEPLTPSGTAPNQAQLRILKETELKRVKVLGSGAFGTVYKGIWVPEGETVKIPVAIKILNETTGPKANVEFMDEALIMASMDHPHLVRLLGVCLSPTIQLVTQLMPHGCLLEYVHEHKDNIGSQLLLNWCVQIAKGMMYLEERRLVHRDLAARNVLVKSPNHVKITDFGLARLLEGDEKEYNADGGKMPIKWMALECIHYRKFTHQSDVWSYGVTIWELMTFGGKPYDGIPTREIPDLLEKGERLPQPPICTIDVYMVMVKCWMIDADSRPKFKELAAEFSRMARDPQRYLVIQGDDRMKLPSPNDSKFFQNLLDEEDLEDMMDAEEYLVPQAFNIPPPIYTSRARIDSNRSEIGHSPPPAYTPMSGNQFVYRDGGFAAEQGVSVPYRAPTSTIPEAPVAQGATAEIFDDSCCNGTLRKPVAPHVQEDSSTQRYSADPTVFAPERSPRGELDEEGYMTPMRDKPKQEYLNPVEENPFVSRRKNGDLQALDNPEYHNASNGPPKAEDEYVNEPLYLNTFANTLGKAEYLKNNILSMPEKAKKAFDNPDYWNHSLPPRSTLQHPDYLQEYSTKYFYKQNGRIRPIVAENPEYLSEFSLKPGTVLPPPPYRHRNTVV

hFLT3(N841I) = target: T12, hFLT3(N841I) (Homo sapiens, UniProt P36888, N841I); assay: KINOMEscan; format: binding
T12 construct: purchased DiscoverX

hFLT3(R834Q) = target: T13, hFLT3(R834Q) (Homo sapiens, UniProt P36888, R834Q); assay: KINOMEscan; format: binding
T13 construct: purchased DiscoverX

hGRK7 = target: T14, hGRK7 (Homo sapiens, UniProt Q8WTQ7); assay: KINOMEscan; format: binding
T14 construct: purchased DiscoverX

hGSK3A = target: T15, hGSK3A (Homo sapiens, UniProt P49840); assay: KINOMEscan; format: binding
T15 construct: purchased DiscoverX

hINSR = target: T16, hINSR (Homo sapiens, UniProt P06213); assay: KINOMEscan; format: binding
T16 construct: purchased DiscoverX (KINOMEscan panel)

hJAK2(JH1Dom.-catalytic) = target: T17, hJAK2(JH1Dom.-catalytic) (Homo sapiens, UniProt O60674); assay: KINOMEscan; format: binding
T17 construct: hJAK2(JH1Dom.-catalytic); purchased DiscoverX (KINOMEscan panel)

hMAP4K4 = target: T18, hMAP4K4 (Homo sapiens, UniProt O95819); assay: KINOMEscan; format: binding
T18 construct: purchased DiscoverX (KINOMEscan platform)

hMAST1 = target: T19, hMAST1 (Homo sapiens, UniProt Q9Y2H9); assay: KINOMEscan; format: binding
T19 construct: purchased DiscoverX

hMET(M1250T) = target: T20, hMET(M1250T) (Homo sapiens, UniProt P08581, M1250T); assay: KINOMEscan; format: binding
T20 construct: purchased DiscoverX

hRIOK1 = target: T21, hRIOK1 (Homo sapiens, UniProt Q9BRS2); assay: KINOMEscan; format: binding
T21 construct: purchased DiscoverX (KINOMEscan platform)

hRIOK2 = target: T22, hRIOK2 (Homo sapiens, UniProt Q9BVS4); assay: KINOMEscan; format: binding
T22 construct: purchased DiscoverX (KINOMEscan platform)

hTEC = target: T23, hTEC (Homo sapiens, UniProt P42680); assay: KINOMEscan; format: binding
T23 construct: purchased DiscoverX

hTGFBR1 = target: T24, hTGFBR1 (Homo sapiens, UniProt P36897); assay: KINOMEscan; format: binding
T24 construct: purchased DiscoverX

hTIE1 = target: T25, hTIE1 (Homo sapiens, UniProt P35590); assay: KINOMEscan; format: binding
T25 construct: purchased DiscoverX
T25 sequence (P35590 22-1138): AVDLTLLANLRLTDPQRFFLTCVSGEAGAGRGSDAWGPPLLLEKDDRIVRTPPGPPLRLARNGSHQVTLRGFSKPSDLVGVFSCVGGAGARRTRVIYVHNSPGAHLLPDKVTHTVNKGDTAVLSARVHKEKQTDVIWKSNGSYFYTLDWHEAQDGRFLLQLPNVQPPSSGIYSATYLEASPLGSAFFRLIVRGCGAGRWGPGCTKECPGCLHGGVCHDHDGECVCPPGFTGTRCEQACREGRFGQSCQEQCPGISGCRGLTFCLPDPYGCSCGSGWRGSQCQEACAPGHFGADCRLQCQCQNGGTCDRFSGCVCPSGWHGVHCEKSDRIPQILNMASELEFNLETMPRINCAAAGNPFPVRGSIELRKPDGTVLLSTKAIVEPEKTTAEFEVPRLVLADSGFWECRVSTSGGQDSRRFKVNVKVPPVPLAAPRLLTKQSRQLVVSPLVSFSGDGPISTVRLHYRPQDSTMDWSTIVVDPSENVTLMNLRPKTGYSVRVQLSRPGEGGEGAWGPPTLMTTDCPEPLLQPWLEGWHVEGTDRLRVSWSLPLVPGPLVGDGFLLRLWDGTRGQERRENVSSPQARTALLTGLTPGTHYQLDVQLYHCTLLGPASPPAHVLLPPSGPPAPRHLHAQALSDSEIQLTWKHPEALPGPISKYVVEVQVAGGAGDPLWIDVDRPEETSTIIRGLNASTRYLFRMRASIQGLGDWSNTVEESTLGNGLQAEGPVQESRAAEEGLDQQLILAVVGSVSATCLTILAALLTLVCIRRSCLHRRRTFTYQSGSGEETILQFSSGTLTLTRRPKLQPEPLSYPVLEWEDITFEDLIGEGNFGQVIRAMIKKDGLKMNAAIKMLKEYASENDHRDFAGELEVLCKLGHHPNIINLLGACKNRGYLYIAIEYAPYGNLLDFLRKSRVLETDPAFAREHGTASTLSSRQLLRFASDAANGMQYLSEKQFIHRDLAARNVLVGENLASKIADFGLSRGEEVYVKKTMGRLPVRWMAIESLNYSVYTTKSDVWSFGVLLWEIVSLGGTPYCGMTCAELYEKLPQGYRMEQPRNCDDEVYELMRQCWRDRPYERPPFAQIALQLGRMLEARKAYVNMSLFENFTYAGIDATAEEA

hTNIK = target: T26, hTNIK (Homo sapiens, UniProt Q9UKE5); assay: KINOMEscan; format: binding
T26 construct: purchased DiscoverX

hLXRβ = target: T27, hLXRβ (Homo sapiens, UniProt P55055); assay: Nuclear hormone receptor assay (Eurofins-CEREP); details: read-out: Relative IC50
T27 construct: Eurofins-CEREP

CYP3A4 = target: T28, CYP3A4 (Homo sapiens, UniProt P08684); assay: Cytochrome p450 inhibition (Eurofins-CEREP); format: in vitro ADME
T28 construct: Eurofins-CEREP

hADRα1A = target: T29, hADRα1A (Homo sapiens, UniProt P35348); assay: Calcium Mobilization Agonist (Eurofins-CEREP); details: @ 13.3 μM
T29 sequence (P35348 1-466): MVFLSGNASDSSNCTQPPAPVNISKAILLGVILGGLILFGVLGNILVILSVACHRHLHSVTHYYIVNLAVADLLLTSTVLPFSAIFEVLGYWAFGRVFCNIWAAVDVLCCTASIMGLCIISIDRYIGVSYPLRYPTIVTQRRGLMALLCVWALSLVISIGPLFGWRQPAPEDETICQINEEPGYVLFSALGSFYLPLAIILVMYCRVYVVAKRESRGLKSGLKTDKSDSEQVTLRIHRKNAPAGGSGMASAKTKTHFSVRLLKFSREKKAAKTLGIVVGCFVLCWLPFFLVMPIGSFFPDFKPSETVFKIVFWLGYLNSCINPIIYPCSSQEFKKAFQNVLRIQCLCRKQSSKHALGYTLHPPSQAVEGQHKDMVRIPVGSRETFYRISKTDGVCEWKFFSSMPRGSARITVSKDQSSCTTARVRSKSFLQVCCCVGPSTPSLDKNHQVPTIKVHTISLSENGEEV

T1 sequence (Q9UM73 19-1620): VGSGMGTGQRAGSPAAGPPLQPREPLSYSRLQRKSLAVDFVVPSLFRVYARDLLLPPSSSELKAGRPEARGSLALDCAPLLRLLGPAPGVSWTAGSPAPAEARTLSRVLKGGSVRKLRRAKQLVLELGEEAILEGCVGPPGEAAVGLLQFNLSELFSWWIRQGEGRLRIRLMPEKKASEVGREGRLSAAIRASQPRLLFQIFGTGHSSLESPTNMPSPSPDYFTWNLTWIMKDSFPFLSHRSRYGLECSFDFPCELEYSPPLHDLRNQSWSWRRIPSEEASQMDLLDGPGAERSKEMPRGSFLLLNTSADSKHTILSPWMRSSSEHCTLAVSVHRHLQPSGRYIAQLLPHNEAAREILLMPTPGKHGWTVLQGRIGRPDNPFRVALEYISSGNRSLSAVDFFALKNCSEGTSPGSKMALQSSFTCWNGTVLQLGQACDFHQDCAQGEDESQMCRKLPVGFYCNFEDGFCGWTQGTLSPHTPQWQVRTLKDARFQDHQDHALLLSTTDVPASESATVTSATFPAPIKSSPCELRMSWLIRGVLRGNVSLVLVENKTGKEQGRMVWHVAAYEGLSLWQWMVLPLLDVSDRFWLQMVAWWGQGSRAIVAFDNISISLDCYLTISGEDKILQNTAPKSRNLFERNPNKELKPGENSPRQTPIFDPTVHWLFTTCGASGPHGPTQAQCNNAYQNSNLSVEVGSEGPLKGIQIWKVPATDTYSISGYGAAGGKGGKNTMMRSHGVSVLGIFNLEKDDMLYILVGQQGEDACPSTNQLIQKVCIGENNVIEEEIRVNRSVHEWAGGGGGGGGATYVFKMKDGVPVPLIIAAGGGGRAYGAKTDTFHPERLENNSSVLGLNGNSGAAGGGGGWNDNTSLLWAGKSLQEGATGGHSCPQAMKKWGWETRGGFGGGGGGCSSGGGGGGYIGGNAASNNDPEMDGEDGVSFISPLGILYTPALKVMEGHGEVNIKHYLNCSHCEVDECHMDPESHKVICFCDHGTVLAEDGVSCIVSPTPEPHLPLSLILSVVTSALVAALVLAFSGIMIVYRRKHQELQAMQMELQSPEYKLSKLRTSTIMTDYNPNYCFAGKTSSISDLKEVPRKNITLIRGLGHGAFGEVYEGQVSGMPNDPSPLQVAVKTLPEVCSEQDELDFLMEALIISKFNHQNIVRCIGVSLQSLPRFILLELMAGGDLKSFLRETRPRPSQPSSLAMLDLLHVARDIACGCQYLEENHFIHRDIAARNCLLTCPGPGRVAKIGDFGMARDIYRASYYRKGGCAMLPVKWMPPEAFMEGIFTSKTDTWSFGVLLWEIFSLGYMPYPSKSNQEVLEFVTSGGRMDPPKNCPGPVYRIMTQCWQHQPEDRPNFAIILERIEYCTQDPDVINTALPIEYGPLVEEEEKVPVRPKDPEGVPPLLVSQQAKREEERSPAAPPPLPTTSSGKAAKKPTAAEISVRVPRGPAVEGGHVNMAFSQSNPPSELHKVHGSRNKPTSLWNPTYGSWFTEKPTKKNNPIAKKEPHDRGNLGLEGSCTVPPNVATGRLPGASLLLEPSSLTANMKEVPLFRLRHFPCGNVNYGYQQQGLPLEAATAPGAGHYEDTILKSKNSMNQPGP
T2 sequence (Q9UM73 19-1620 L1196M): as the sequence (Q9UM73 19-1620) above, with L1178M counted along it

Cc1cn(CCN2CCN(c3ccccc3-c3cc(C#N)cc(C(=O)NCCCN4CCCC4)c3)CC2)c2ccccc12 [LLY-507, 3-cyano-5-{2-[4-[2-(3-methylindol-1-yl)ethyl]piperazin-1-yl]-phenyl}-N-[(3-pyrrolidin-1-yl)propyl]benzamide]
-1.9%: % Effect, Stimulation (hADRα1A)
> 20 µM: IC50 (hALK) | IC50 (hALK(L1196M)) | IC50 (hAMPK-alpha1) | IC50 (hBIKE) | IC50 (hBMPR1A) | IC50 (hCAMK1) | IC50 (hCSNK1G3) | IC50 (hCSNK2A1) | IC50 (hEPHB2) | IC50 (hEPHB3) | IC50 (hERBB4) | IC50 (hFLT3(N841I)) | IC50 (hFLT3(R834Q)) | IC50 (hGRK7) | IC50 (hGSK3A) | IC50 (hINSR) | IC50 (hJAK2(JH1Dom.-catalytic)) | IC50 (hMAP4K4) | IC50 (hMAST1) | IC50 (hMET(M1250T)) | IC50 (hRIOK1) | IC50 (hRIOK2) | IC50 (hTEC) | IC50 (hTGFBR1) | IC50 (hTIE1) | IC50 (hTNIK)
69.1%: % inhibition @ 10 μM (CYP3A4)
> 10 µM: IC50 (hLXRβ)
